Source: PMC12264943, “Identification of New Human P2X7 Antagonists Using Ligand- and Structure-Based Virtual Screening” (Journal of Chemical Information and Modeling, 2025)
Entries after “also recorded” stand apart in the source; their conditions may differ.

Legend:
Assay type in all cases: cell-based
hP2X7 [1] = molecular target: T1, hP2X7 (Homo sapiens, UniProt Q99572); experiment: Membrane potential assay with the blue dye (assay optimization); conditions: read-out: ATP EC50
T1 construct: expressed in transfected cells; host or cells: HEK-293, stably transfected (gift of E. Adinolfi's group, Ferrara University)
T1 sequence (Q99572 1-595): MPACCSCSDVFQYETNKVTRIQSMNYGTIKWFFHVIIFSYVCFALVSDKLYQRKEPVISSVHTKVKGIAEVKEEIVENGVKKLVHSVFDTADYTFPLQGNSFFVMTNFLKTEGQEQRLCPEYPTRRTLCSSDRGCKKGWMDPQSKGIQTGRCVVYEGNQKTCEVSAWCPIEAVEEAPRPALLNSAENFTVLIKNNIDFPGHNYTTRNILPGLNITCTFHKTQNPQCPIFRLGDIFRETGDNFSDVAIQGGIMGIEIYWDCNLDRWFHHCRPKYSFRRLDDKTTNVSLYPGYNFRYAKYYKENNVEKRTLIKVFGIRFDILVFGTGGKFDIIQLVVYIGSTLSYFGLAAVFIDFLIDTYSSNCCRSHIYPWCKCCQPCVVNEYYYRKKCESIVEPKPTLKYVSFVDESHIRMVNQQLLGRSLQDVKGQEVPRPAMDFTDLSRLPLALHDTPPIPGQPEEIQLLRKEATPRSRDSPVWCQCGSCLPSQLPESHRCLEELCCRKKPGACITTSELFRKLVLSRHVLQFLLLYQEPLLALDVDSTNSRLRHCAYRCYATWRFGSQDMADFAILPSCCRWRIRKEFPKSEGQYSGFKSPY
Source text: The use of two or more complementary assays for assessing P2X7 modulator activity has been previously applied to help identify false positives as macropore formation is also linked to P2X2 and P2X4. , As P2X receptors are ion channels, they are probably best studied using electrophysiology techniques such as single-cell patch clamp, but these techniques can be laborious when testing libraries of compounds.

hP2X7 [2] = molecular target: T1, hP2X7; experiment: Membrane Potential Red (MPR) dye assay, 1321 N1 cells stably transfected with hP2X7
Protocol: (§1) Astrocytoma 1321 N1 (established by Dr. Gaia Pasqualetto) and HEK-293 (kindly gifted by E. Adinolfi’s group, Ferrara University) both stably transfected with hP2X7, were used to assess the activity of the small molecules selected from the VS. Cells were maintained in DMEM:F12 (PanBiotech) supplemented with 10% FBS, 1% pen-strep, and 150 μg/mL G418 (PanBiotech).
(§2) Cells were plated as described for the YO-PRO 1 dye uptake assay. MPR dye (Molecular Devices) was prepared following the manufacturer’s protocol and diluted 1:10 in ECS-LD buffer. After washing with DPBS, cells were incubated with the dye for 30 min at 37 °C. Fluorescence changes (excitation: 525 nm; emission: 560 nm) were recorded using a Clariostar plate reader during ATP-induced membrane depolarization. Baseline fluorescence was recorded for 5 cycles, and ATP was added via an automated injector (10 μL). Membrane depolarization was quantified as the ratio of the maximal fluorescence change over baseline intensity (Δ(F max–F0)/F0)).
2 Initial screening assays to identify hit compounds. (A) The compounds were screened at 30 μM in the YO-PRO 1 dye uptake using 1321 N1 cells stably transfected with hP2X7. Compound activity was evaluated along a time of 20 min (75 s per cycle) after ATP addition (700 μM). The fluorescence intensity (FI) values of the first 10 cycles were considered for assessing their ability to inhibit hP2X7. Compound responses were normalized to the fluorescent signal recorded on 0.3% DMSO cells treated with 700 μM ATP of each plate. […] (B) Compounds screened at 10 μM using MPR using 1321 N1 cells stably transfected with hP2X7. The compound activity was evaluated for 5 min after ATP addition (15 s per cycle). The fluorescence intensity recorded in the first cycles (before reaching a plateau response) was considered for assessing the small molecule’s ability to inhibit hP2X7. Compound responses were normalized to the fluorescence signal recorded on 0.1% DMSO cells treated with 700 μM ATP of each plate. […] One-way ANOVA and Dunnet test were used for statistical analysis (****P < 0.0001), (*P < 0.02). […]

hP2X7 [3] = molecular target: T1, hP2X7; experiment: as above; conditions: compound 10 μM, 700 μM ATP
hP2X7 [4] = molecular target: T1, hP2X7; experiment: Membrane Potential Red (MPR) dye assay, HEK-293 cells stably transfected with hP2X7; conditions: 10 μM, 1 mM ATP, hP2X7 HEK-293
Protocol: as §1, §2
4 Evaluation of compound 2 and 9 analogue activity using YO-PRO 1 and MPR assays. The activity of compound 2 (A and B) and 9 (C and D) analogues was evaluated in YO-PRO 1 (A and C) and MPR (B and D) assays. The compounds were tested at 10 μM and preincubated for either 20 (YO-PRO 1) or 30 min (MPR). The baseline was recorded for 5 cycles before ATP treatment (1 mM). Fluorescence was recorded for 25 (YO-PRO 1) or 5 min (MPR). The data were normalized by setting as 100% for the fluorescence measured from hP2X7 HEK-293 cells incubated with vehicle (0.1% DMSO) and treated with 1 mM ATP and 0% for the fluorescence recorded by the cells not treated with ATP. The data shown correspond to three independent biological replicates (3 technical replicates per experiment; error bars represent the SEM from the mean values of each biological replicate (n = 3)). The statistical analysis was performed with one-way Anova using Dunnett’s function (P**** < 0.0001; P*** < 0.0003; P** < 0.002; P* < 0.02).

Nc1ncnc2c1ncn2[C@@H]1O[C@H](COP(=O)(O)OP(=O)(O)OP(=O)(O)O)[C@@H](O)[C@H]1O [ATP, reference compound]
EC50 (hP2X7 [1]): 2050 µM
EC50 (hP2X7 [2]; MPR assay, red dye, 1321 N1 hP2X7 cells, one biological replicate, read-out: ATP EC50): 679 µM

O=C(NCCc1ccccc1)NC(Cc1ccc2c(c1)OCO2)Cc1ccc2c(c1)OCO2 [Compound 2]
activity in MPR screen, hP2X7-induced membrane depolarization (hP2X7 [3]): active; also recorded: statistically inhibited

O=C(CSc1ccccc1C(=O)Nc1ccnn1Cc1cccnc1)Nc1ccc2c(c1)OCO2 [Compound 9]
statistically significant inhibition, % of control, initial MPR screen (hP2X7 [2]; compound 10 μM, 700 μM ATP): 65 % of control
activity in MPR assay (hP2X7 [4]): neither compound 9 nor its analogues significantly affected the membrane depolarization; also recorded: lack of inhibition
activity in MPR screen, hP2X7-induced membrane depolarization (hP2X7 [3]): active; also recorded: statistically inhibited
